Laboratory results: US20250003877A1, “Silyl Bridged Dyes” (priority 2021, published 2025)
Where two headings read alike, the source gives them in different places.

SMILES	Brightness (ϕ × ε) (PBS)	Em (nm) (PBS)	Ex (nm) (PBS)	ε (M^−1 cm^−1) (PBS)	ϕ (quantum yield) (PBS, pH 7.4)	Brightness (ϕ × ε) (EtOH)	fluorescence and scatter (EtOH)	ε (M^−1 cm^−1) (EtOH)	ϕ (quantum yield) (EtOH)	Rayleigh scatter (PBS, 1 μM concentration)	brighter than dimethylsilyl counterpart (vs 001 (for 002, 009) or vs 016 (for 017), PBS)
Cc1ccccc1C1=C2C=CC(=[N+](C)C)C=C2[Si](C)(CCC(F)(F)F)c2cc(N(C)C)ccc21 (stereo not drawn) [Compound 010, N-(7-(Dimethylamino)-5-methyl-10-(o-tolyl)-5-(3,3,3-trifluoropropyl)dibenzo[b,e]silin-3(5H)-ylidene)-N-methylmethanaminium]	39,854	666 nm	650 nm	112,900 M^−1 cm^−1	0.35	–	–	–	–	–	–
CCCCCCCC[Si]1(CCCCCCCC)C2=CC(=[N+](C)C)C=CC2=C(c2ccccc2C)c2ccc(N(C)C)cc21 [Compound 011, N-(7-(Dimethylamino)-5,5-dioctyl-10-(o-tolyl)dibenzo[b,e]silin-3(5H)-ylidene)-N-methylmethanaminium]	–	666 nm	651 nm	low extinction coefficient	0.18	89,091	bright fluorescence and no scatter peak	156,300 M^−1 cm^−1	0.57	pronounced Rayleigh scatter peak	–
Cc1ccccc1C1=C2C=CC(=[N+](C)C)C=C2[Si](C)([C@H]2CC3C=CC2C3)c2cc(N(C)C)ccc21 (stereo partly drawn) [Compound 013, N-(5-((2S)-Bicyclo[2.2.1]hept-5-en-2-yl)-7-(dimethylamino)-5-methyl-10-(o-tolyl)dibenzo[b,e]silin-3(5H)-ylidene)-N-methylmethanaminium]	60,800	666 nm	649 nm	160,000 M^−1 cm^−1	0.38	–	–	–	–	–	–
Cc1ccccc1C1=C2C=CC(=[N+](C)C)C=C2[Si]2(CCCCC2)c2cc(N(C)C)ccc21 [Compound 014, N-(7-(Dimethylamino)-10-(o-tolyl)-3H-spiro[dibenzo[b,e]siline-5,1′-silinan]-3-ylidene)-N-methylmethanaminium]	56,610	666 nm	650 nm	170,000 M^−1 cm^−1	0.33	–	–	–	–	–	–
C=C[Si]1(C=C)c2cc3c(cc2C(c2ccccc2C)=c2cc4c(cc21)=[N+](C)CCC4)CCCN3C [Compound 017, 1,11-Dimethyl-6-(o-tolyl)-13,13-divinyl-2,3,4,8,9,10,11,13-octahydrosilino[3,2-g:5,6-g′]diquinolin-1-ium]	75,104	702 nm	683 nm	234,700 M^−1 cm^−1	0.32	–	–	–	–	–	60%
Cc1ccccc1C1=c2cc3c(cc2[Si](c2ccccc2)(c2ccccc2)c2cc4c(cc21)CCCN4C)=[N+](C)CCC3 [Compound 018, 1,11-Dimethyl-13,13-diphenyl-6-(o-tolyl)-2,3,4,8,9,10,11,13-octahydrosilino[3,2-g:5,6-g′]diquinolin-1-ium]	41,524	710 nm	690 nm	148,300 M^−1 cm^−1	0.28	–	–	–	–	–	–
Cc1ccccc1C1=c2cc3c(cc2[Si](C)(CCCCl)c2cc4c(cc21)CCCN4C)=[N+](C)CCC3 (stereo not drawn) [Compound 019, 13-(3-Chloropropyl)-1,11,13-trimethyl-6-(o-tolyl)-2,3,4,8,9,10,11,13-octahydrosilino[3,2-g:5,6-g′]diquinolin-1-ium]	41,250	694 nm	677 nm	125,000 M^−1 cm^−1	0.33	–	–	–	–	–	–
C=C[Si]1(C=C)c2cc3c(cc2C(c2ccccc2C)=c2cc4c(cc21)=[N+](C)CC4)CCN3C [Compound 021, 1,9-Dimethyl-5-(o-tolyl)-11,11-divinyl-2,3,7,8,9,11-hexahydrosilino[3,2-f:5,6-f]diindol-1-ium]	17,693	728 nm	702 nm	136,100 M^−1 cm^−1	0.13	–	–	–	–	–	–
